Laboratory results as given in patent publication US20190374647A1, “STABLE LIPOSOMES FOR DRUG DELIVERY” (YISSUM RESEARCH DEVELOPMENT COMPANY OF THE HEBREW …, priority 2012, published 2019).
Where a name gives a salt, the structure may show the parent alone. Marks after values point to notes of the source that are not given here. Each block holds one molecule with its values, some of them ahead of it.

Key:
[1] = cited from earlier work
[2] = Doxorubicin solubility in ammonium salt solutions; type: physicochemical
[3] = Blood levels of doxorubicin in mice after single I.V. dose; type: in vivo, Balb/c mice; details: after 48 hours, FIG. 3
Description: At defined time-points (see Table 8 below, for composition of each formulation see Tables 5 and 6), mice of each group were euthanized with CO2 and terminal blood was withdrawn from the retro-orbital sinus and collected in labeled K3EDTA tubes. The blood samples were then immediately subjected to plasma separation procedure (4000 rpm for 10 minutes at 4° C.). The plasma, red blood cells fraction and whole blood of each mouse has been collected in labeled CryoTubes and stored at −80° C. pending analysis. Doxorubicin was extracted from the samples as follows. […] From the upper phase, 100 μl of the plasma diluted in A-IPA were diluted in 900 μl mobile phase for analysis and the contents of extracted doxorubicin was determined using fluorescence HPLC (as described in Gabizon et al. (1993) Pharm. Research 10(5):703-708).

[4] = test system: human OVCAR-3 ovarian adenocarcinoma cells; assay: OVCAR-3 ovarian adenocarcinoma xenograft, anti-tumor efficacy; type: in vivo, athymic nude mice
Description: Female athymic nude mice were inoculated subcutaneously in the left flank with a suspension of 5×10^6 human OVCAR-3 ovarian adenocarcinoma cells (200 µL injection volume) and monitored for tumor growth. Animals were selected, randomized into four treatment groups (n=8 per group) with a balanced tumor size of ˜100 mm^3 according to the study design (Table 9) below.
(§1) G1 animals served as vehicle control and received 5 ml/kg saline. 2, G5 and G6 animals were treated with 8 mg/kg doxorubicin HCl, LC3-PLDMS-2 (PLMDS-2 are liposomes containing 250 mM ammonium methanesulfonate (MS) and remote loaded with doxorubicin (group 5 in the experiment), LC4_PLDMS-5 are liposomes containing 500 mM ammonium methanesulfonate (MS) and remote loaded with doxorubicin (group 6 in the experiment) (respectively, given intravenously (5 mL/kg dose volume) once weekly for 2 consecutive weeks. Body weight, general clinical observations and tumor size were monitored throughout the experimental period. Experimental groups were terminated when median tumor volume reached 2500 mm^3. Endpoint parameters such as body weight change, % ILS, Median tumor volume, TGI, % T/C, RTV, LCK, Tumor growth delay, TVDT and TVDTD were calculated. Tumor volumes were measured twice weekly using a digital vernier caliper recording length (L=longest axis) and width (W=shortest axis), and volume was calculated in mm^3 as L×W^2/2. Groups reaching a median tumor volume of 2500 mm^3 were terminated and the date of termination was used as the date of death for the purpose of survival calculations. The following parameters were calculated: median survival time (MST), percentage increased life span (% ILS) and median tumor volume (TV). Other measured, including median TV change; median tumor growth inhibition (TGI); % T/C; relative tumor volume (RTV); log cell kill (LCK); tumor growth delay; tumor volume doubling time (TVDT); and tumor volume doubling time delay (TVDTC), were derived from the median tumor volume measurements. Tumor growth regression was also plotted.
(§2) Mice bearing growing tumor were selected and randomized into 4 groups containing 8 animals in each based on a mean tumor size of ˜100 mm3. G1 animals served as vehicle control and received 5 ml/kg saline whereas G2, G5 and G6 animals received Doxorubicin HCl, LC3-PLDMS-2 or LC4-PLDMS-5, respectively, at a dose of 8 mg/kg. All the animals were dosed intravenously at the dose volume of 5 ml/kg weekly once for two weeks. Body weight, general clinical observations and tumor volume parameters were recorded during the experimental period. Groups reaching median tumor volume of 2500 mm^3 were terminated.
For preparation and administration of reference and test item, all the test items are ready to use formulations. The strength of test formulation is 2 mg/ml of doxorubicin HCl in sterile 5 ml vial. 2 ml of reference or test item formulation (i.e. Doxorubicin HCl, LC3-PLDMS-2 and LC4-PLDMS-5) was diluted to 0.5 ml normal saline to achieve 1.6 mg/ml. 100 μL of final test formulation was injected intravenously to 20 g of mouse to achieve the 8 mg/kg dose. Group G1 animals received normal saline at the dose volume of 5 ml/kg.

[5] = OVCAR-3 xenograft study, tolerability (body weight, clinical signs); type: in vivo
Description: as §1, §2
The body weight of each mouse was recorded at the time of randomization, on alternate days during dosing period and post-dosing period until the end of the study.

[6] = Doxorubicin remote loading encapsulation efficiency and short stability; type: physicochemical; details: for Encapsulation % (T0): doxorubicin
Description: In this stage the efficiency of remote loading encapsulation and encapsulation stability were studied. Liposomes were prepared as described above. […] All formulations were made from HSPC:Cholesterol:PEG-DSPE mole ratio of 54.5:41:4.5, briefly the lipids were hydrated and suspended in the various ammonium ions to form MLV. The MLV were downsized by extrusion followed by dialysis to remove external ammonium salt and form the gradient, finally drug was remote loaded into the gradient liposomes.

[7] = Doxorubicin accelerated chemical stability in ammonium-anion salt solutions; type: physicochemical; details: 4 hours at 70° C.; for Additional peaks: HPLC
Description: For accelerated stability the, chemical stability of doxorubicin in various ammonium-anions salts solutions was tested. Briefly, doxorubicin (2 mg/ml) was dissolved in various ammonium-anions salt solutions and incubated for 4 hours at the temperature of 70° C. At the end of 4 hours incubation doxorubicin concentration and the presence of doxorubicin degradation products were analyzed by HPLC using Agilent 1100 according to following protocol: Mobile phase: 50% MeOH, 40% phosphate buffer, pH=4, 10% Acetonitrile and 2% TEA Column: Phenomenex, Luna, C-18, Flow: 1 ml/min, detection wavelength 254 and 480 nm.

[8] = Topotecan remote loading encapsulation efficiency; type: physicochemical; details: 4 days storage at 5° C.
Description: Remote loading of topotecan were performed in the same way as the experiments described in Table 4 and Table 5 below for doxorubicin remote loading except that the drug concentration was determined from its absorbance at a wave length of 370 nm (which is the wavelength of maximum absorbance of topotecan).

[9] = 8 mg/kg i.v. once weekly for 2 weeks
[10] = counter anion 500 mM, salt pH 5.5
[11] = counter anion 500 mM, salt pH 6.2
[12] = counter anion 250 mM, salt pH 5.5
[13] = counter anion 500 mM, salt pH 5.53

Molecule: O=C(O)[C@H]1OC(O)[C@H](O)[C@@H](O)[C@@H]1O (mixture of isomers) [Glucuronate]
Log P (log D at pH=5.5) value quoted in text [1]: < −2.3
LogD (acid)- at pH = 5.5 [1]: −5.38

Molecule: O=S(=O)(O)CCCO [3-HydroxyPropane-1-Sulfonate]
LogP (acid) [1]: −2.59
LogD (acid)- at pH = 5.5 [1]: −5.39

Molecule: COc1cccc2c1C(=O)c1c(O)c3c(c(O)c1C2=O)C[C@@](O)(C(=O)CO)C[C@@H]3O[C@H]1C[C@H](N)[C@H](O)[C@H](C)O1 [Doxorubicin HCl]
higher solubility of the methanesulfonate form versus ammonium sulfate [2]: at least 35 fold
solubility of doxorubicin in 250 mM ammonium alkyl or aryl sulfonate relative to 250 mM ammonium sulfate [2]: approximately 30 fold
precipitation in the presence of alkyl or aryl sulfonate ions ([2]; 70 mM): did not precipitate
concentration at which doxorubicin precipitates ([2]; in the presence of sulfate ions (ammonium sulfate)): less than 2 mM
drug levels in blood in comparison to Doxil® [3]: below limit of detection
% Increased Life Span (% ILS) [4, 9]: 21.2%
Mean TVDT [4, 9]: 7 days
Median Survival Time (MST) [4, 9]: 63
median life span [4, 9]: 63 days
Log Cell Kill Value ([4]; 8 mg/kg i.v. once weekly for 2 weeks, derived from median tumor volume): 0.40
Median Tumor Volume ([4]; Day 22): 110.9 mm^3
Median Tumor Volume ([4]; Day 24): 128.6 mm^3
Median Tumor Volume ([4]; Day 26): 145.8 mm^3
Median Tumor Volume ([4]; Day 28): 173.8 mm^3
Median Tumor Volume ([4]; Day 30): 194.7 mm^3
Median Tumor Volume ([4]; Day 32): 215.5 mm^3
Median Tumor Volume ([4]; Day 34): 252.9 mm^3
Median Tumor Volume ([4]; Day 36): 311.1 mm^3
Median Tumor Volume ([4]; Day 38): 379.4 mm^3
Median Tumor Volume ([4]; Day 40): 453.8 mm^3
Median Tumor Volume ([4]; Day 42): 550.9 mm^3
Median Tumor Volume ([4]; Day 44): 673.4 mm^3
Median Tumor Volume ([4]; Day 46): 802.4 mm^3
Median Tumor Volume ([4]; Day 48): 1006.1 mm^3
Median Tumor Volume ([4]; Day 50): 1218.8 mm^3
Median Tumor Volume ([4]; Day 52): 1430.3 mm^3
Median Tumor Volume ([4]; Day 56): 1799.5 mm^3
Median Tumor Volume ([4]; Day 59): 2192.6 mm^3
Median Tumor Volume ([4]; Day 63): 2699.3 mm^3
Mean Body Weight ([5]; Day 22): 22.4 g
Mean Percentage Change in Body Weight ([5]; Day 22): 0.0%
Mean Body Weight ([5]; Day 24): 22.1 g
Mean Percentage Change in Body Weight ([5]; Day 24): −1.6%
Mean Body Weight ([5]; Day 26): 21.6 g
Mean Percentage Change in Body Weight ([5]; Day 26): −3.7%
Mean Body Weight ([5]; Day 28): 21.8 g
Mean Percentage Change in Body Weight ([5]; Day 28): −2.9%
Mean Body Weight ([5]; Day 30): 21.5 g
Mean Percentage Change in Body Weight ([5]; Day 30): −4.1%
Mean Body Weight ([5]; Day 32): 21.4 g
Mean Percentage Change in Body Weight ([5]; Day 32): −4.7%
Mean Body Weight ([5]; Day 34): 21.1 g
Mean Percentage Change in Body Weight ([5]; Day 34): −6.1%
Mean Body Weight ([5]; Day 36): 20.9 g
Mean Percentage Change in Body Weight ([5]; Day 36): −6.6%
Mean Body Weight ([5]; Day 38): 20.8 g
Mean Percentage Change in Body Weight ([5]; Day 38): −7.4%
Mean Body Weight ([5]; Day 40): 20.6 g
Mean Percentage Change in Body Weight ([5]; Day 40): −8.0%
Mean Body Weight ([5]; Day 42): 20.6 g
Mean Percentage Change in Body Weight ([5]; Day 42): −8.1%
Mean Body Weight ([5]; Day 44): 20.5 g
Mean Percentage Change in Body Weight ([5]; Day 44): −8.5%
Mean Body Weight ([5]; Day 46): 20.5* g
Mean Percentage Change in Body Weight ([5]; Day 46): −8.6%
Mean Body Weight ([5]; Day 48): 20.8* g
Mean Percentage Change in Body Weight ([5]; Day 48): −7.3%
Mean Body Weight ([5]; Day 50): 20.9* g
Mean Percentage Change in Body Weight ([5]; Day 50): −6.9%
Mean Body Weight ([5]; Day 52): 21.1* g
Mean Percentage Change in Body Weight ([5]; Day 52): −6.0%
Mean Body Weight ([5]; Day 56): 21.4 g
Mean Percentage Change in Body Weight ([5]; Day 56): −4.7%
Mean Body Weight ([5]; Day 59): 21.8 g
Mean Percentage Change in Body Weight ([5]; Day 59): −2.9%
Mean Body Weight ([5]; Day 63): 22.1 g
Mean Percentage Change in Body Weight ([5]; Day 63): −1.3%
maximum body weight loss ([5]; G2 on day 46, other groups on day 32 / 34 as printed): −8.6%
body weight gain by the end of experiment ([5]; mouse, in vivo): no body weight gain was observed

Molecule: O=C(O)[C@H](O)[C@@H](O)[C@H](O)[C@H](O)CO [Gluconate]
LogP (acid) [1]: −2.116
LogD (acid)- at pH = 5.5 [1]: −4.83

Encapsulation % (T0) [6, 10]: 41.19%
Molecule: O=C(O)CO [Glycolate]
LogP (acid) [1]: −1.204

Encapsulation % Short stability 5° C. After one week ([6]; counter anion 500 mM, salt pH 6): 15.38%
Molecule: CC(=O)C(=O)O [Pyruvate]
LogP (acid) [1]: −1.24
LogD (acid)- at pH = 5.5 [1]: −4.04

Molecule: O=S(=O)(O)O [Sulfate]
Assay loss (%) at 254 nm [7]: <15%
Additional peaks [7]: no

encapsulation efficiency (loading) ([8]; topotecan HCl 1.3 mg/ml, ammonium 350 mM, methanesulfonate 350 mM counter anion): 94%
encapsulation efficiency (loading) ([8]; topotecan HCl, 500 mM ammonium, 250 mM sulfate counter anion): 93%
Molecule: CC[C@@]1(O)C(=O)OCc2c1cc1n(c2=O)Cc2cc3c(CN(C)C)c(O)ccc3nc2-1 [topotecan]

Molecule: Ethanesulfonate
LogP (acid) [1]: −1.577
LogD (acid)- at pH = 5.5 [1]: −4.85

Molecule: Lactate
Encapsulation % Short stability 5° C. After one week [6, 11]: 48.68%
Encapsulation % (T0) ([6]; counter anion 250 mM, salt pH 4.5): 18.37%
Encapsulation % (T0) [6, 12]: 23.42%
Encapsulation % (T0) [6, 11]: 101.95%

Encapsulation % (T0) [6, 12]: 36.23%
Encapsulation % (T0) [6, 10]: 22.55%
Molecule: Maleate

Molecule: Methanesulfonate
Assay loss (%) at 254 nm [7]: <15%
Additional peaks [7]: no
Encapsulation % Short stability 5° C. After one week [6, 13]: 110.66%
Encapsulation % (T0) [6, 13]: 106.32%
LogP (acid) [1]: −2.087
LogD (acid)- at pH = 5.5 [1]: −5.39

Molecule: Tartarate
LogP (acid) [1]: −1.081
